Consider 10 compounds from ChEMBL document CHEMBL4411295, “Discovery of novel nonsteroidal VDR agonists with novel diarylmethane skeleton for the treatment of breast cancer” (Eur J Med Chem, 2019).

The target in data set [1] is T1, Vitamin D3 receptor (Homo sapiens) (UniProt P11473).
T1 sequence (whole entry): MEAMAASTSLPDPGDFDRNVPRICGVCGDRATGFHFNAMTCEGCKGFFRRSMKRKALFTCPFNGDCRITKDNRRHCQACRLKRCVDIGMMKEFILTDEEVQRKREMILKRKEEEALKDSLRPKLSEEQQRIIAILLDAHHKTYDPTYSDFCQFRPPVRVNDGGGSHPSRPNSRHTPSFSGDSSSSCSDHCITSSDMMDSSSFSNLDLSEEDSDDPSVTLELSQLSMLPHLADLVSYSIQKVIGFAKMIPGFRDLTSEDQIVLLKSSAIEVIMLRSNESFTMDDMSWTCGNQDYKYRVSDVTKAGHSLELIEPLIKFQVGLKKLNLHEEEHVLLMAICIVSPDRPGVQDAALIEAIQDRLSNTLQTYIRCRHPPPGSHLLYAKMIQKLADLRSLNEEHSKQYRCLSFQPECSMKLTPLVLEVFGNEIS
Put plainly: Binding affinity at VDR (unknown origin) assessed as relative VDR-probe inhibition at 1 uM by fluorescence polarization assay relative to 1,25(OH)2D3.

Data set [2] concerns MCF7. Put plainly: Induction of apoptosis in human MCF7 cells assessed as increase in p21 expression at 0.5 uM after 24 hrs by qPCR analysis. The data set is classed as functional, cell-based.
For data set [3], the system named is MCF7. Put plainly: Induction of apoptosis in human MCF7 cells assessed as increase in p21 level at 0.5 uM after 24 hrs by Western blot analysis. The data set is classed as functional, cell-based. Background: In western blotting, separated proteins are transferred to a membrane and probed.
In data set [4] the test system is MCF7. In words: Induction of apoptosis in human MCF7 cells assessed as increase in Bax expression at 0.5 uM after 24 hrs by qPCR analysis. The data set is classed as functional, cell-based. For orientation: Real-time PCR tracks product formation cycle by cycle.
Data set [5] concerns MCF7. Put plainly: Induction of apoptosis in human MCF7 cells assessed as increase in Bax level at 0.5 uM after 24 hrs by Western blot analysis. Format: functional, cell-based.
Data set [6] deals with MCF7. In words: Induction of apoptosis in human MCF7 cells at 0.5 uM after 48 hrs by Annexin V-FITC/propidium iodide staining-based flow cytometric analysis. Format: functional, cell-based. In general terms: A flow cytometer gives signals particle by particle.
In data set [7] the test system is MCF7. In words: Induction of apoptosis in human MCF7 cells assessed as reduction in Bcl2 expression at 0.5 uM after 24 hrs by qPCR analysis. Format: functional, cell-based.
For data set [8], the system named is MCF7. In words: Induction of apoptosis in human MCF7 cells assessed as reduction in Bcl2 level at 0.5 uM after 24 hrs by Western blot analysis. The data set is classed as functional, cell-based.
Data set [9] concerns MCF7. Put plainly: Cell cycle arrest in human MCF7 cells assessed as accumulation at G0/G1 phase at 1 uM after 24 hrs by propidium iodide staining based flow cytometric analysis (reference value: 56.64%). Format: functional.
In data set [10] the test system is MCF7. Put plainly: Induction of apoptosis in human MCF7 cells assessed as necrotic cells at 1 uM after 48 hrs by Annexin V-FITC/propidium iodide staining-based flow cytometric analysis (reference value: 0.29%). The data set is classed as functional.
Data set [11] has as its system MCF7. In words: Induction of apoptosis in human MCF7 cells assessed as early apoptotic cells at 1 uM after 48 hrs by Annexin V-FITC/propidium iodide staining-based flow cytometric analysis (reference value: 3.80%). Format: functional.
For data set [12], the system named is MCF7. In words: Induction of apoptosis in human MCF7 cells assessed as late apoptotic cells at 1 uM after 48 hrs by Annexin V-FITC/propidium iodide staining-based flow cytometric analysis (reference value: 1.61%). The data set is classed as functional.
The test system of data set [13] is MCF7. In words: Cell cycle arrest in human MCF7 cells assessed as accumulation at G2/M phase at 1 uM after 24 hrs by propidium iodide staining based flow cytometric analysis (reference value: 12.04%). Format: functional.
The subject of data set [14] is MCF7. Put plainly: Induction of apoptosis in human MCF7 cells assessed as viable cells at 1 uM after 48 hrs by Annexin V-FITC/propidium iodide staining-based flow cytometric analysis (reference value: 94.3%). The data set is classed as functional. The following applies: MCF7, 48 h, read-out: Activity.
Data set [15] concerns MCF7. Put plainly: Cell cycle arrest in human MCF7 cells assessed as accumulation at S phase at 1 uM after 24 hrs by propidium iodide staining based flow cytometric analysis (reference value: 31.32%). Format: functional.
For data set [16], the system named is MCF7. In words: Antiproliferative activity against human MCF7 cells after 24 hrs by MTT assay. The data set is classed as functional, cell-based. The note with it: MCF7, 24 h.
Another data set concerns L02. In words: Cytotoxicity against human LO2 cells assessed as reduction in cell viability after 24 hrs by MTT assay. Format: cell-based. The following applies: L02, 24 h.
Another data set concerns Mus musculus. In words: Hypercalcemic effect in BALB/C nude mouse xenografted with human MCF7 cells at 0.5 ug/kg, ip administered 3 times per week measured after 15 days. The data set is classed as ADME, organism-based. The note with it: in vivo, 0.0005 mg/kg, 360 h.
In data set [17] the test system is MCF7. In words: Antitumor activity against human MCF7 cells xenografted in BALB/C nude mouse assessed as reduction in tumor volume at 0.5 ug/kg, ip administered 3 times per week. Format: functional, organism-based.

pIC50: −log10 of the molar value. Calls of active or inactive are those of the source. The calls are words filed in the database; no cut-off is given here.

As usually defined, the inhibition is how much of the control response was suppressed. With `CCN(CC)CCNC(=O)c1ccc(C(CC)(CC)c2ccc(C#CC(C)(O)CC)c(C)c2)n1CC` (configuration not stated), the inhibition in data set [1] worked out at 63.4%. Besides, the result with MCF7 [2], in the data set on MCF7 [3], in the data set on MCF7 [4], with MCF7 [5], in the data set with MCF7 [6] and in the data set with MCF7 [7] was Active. In addition, the result with MCF7 [8] was Active.
Take `CCN(CC)CCNC(=O)c1ccc(C(CC)(CC)c2ccc(C#CC(C)(C)O)c(C)c2)n1CC`: the inhibition in data set [1] amounted to 60.2%. Moreover, the outcome with MCF7 [2], with MCF7 [3], in the data set with MCF7 [4], in the data set on MCF7 [5], with MCF7 [7] and in the data set on MCF7 [8] was Active.
In the case of `CCN(CC)CCNC(=O)c1cc(C(CC)(CC)c2ccc(C#CC(C)(O)CC)c(C)c2)cn1CC` (configuration not stated), the inhibition in data set [1] came to 59.2%.
As for `CCCC(O)(C#Cc1ccc(C(CC)(CC)c2cc(C(=O)NCCN(CC)CC)n(CC)c2)cc1C)CCC`, the inhibition in data set [1] was determined as 51.1%. Besides, the outcome with MCF7 [2], with MCF7 [3], with MCF7 [4], with MCF7 [5], in the data set on MCF7 [7] and in the data set on MCF7 [8] was Active.
In the case of `CCCC(O)(C#Cc1ccc(C(CC)(CC)c2ccc(C(=O)NCCN(CC)CC)n2CC)cc1C)CCC`, the inhibition in data set [1] is 52.1%.
Regarding `CCN(CC)CCNC(=O)c1cc(C(CC)(CC)c2ccc(C#CC(C)(C)O)c(C)c2)cn1CC`, in data set [1], the inhibition turned out to be 56.3%.
With `C=C1/C(=C\C=C2/CCC[C@]3(C)[C@@H]([C@H](C)/C=C/[C@@H](O)C4CC4)CC[C@@H]23)C[C@@H](O)C[C@@H]1O` [CALCIPOTRIENE], the Activity in the data set on MCF7 [9] is reported as 63%; in the data set with MCF7 [10], 0.31%; in the data set with MCF7 [11], 15.1%; in the data set on MCF7 [12] it was 3.77%; with MCF7 [13], 12.55%; with MCF7 [15], 24.45%. Also, the viability at 1 µM in the data set on MCF7 [14] turned out to be 80.8%.
One may read the pIC50 as the IC50 on a negative log10 scale, so that one unit is a factor of ten. `CCN(CC)CCNC(=O)c1cc(C(CC)(CC)c2ccc(C#CC3(O)CCC3)c(C)c2)cn1CC`: the inhibition in data set [1] was found to be 49.3%. The result in the data set with MCF7 [2], in the data set with MCF7 [3], in the data set with MCF7 [4], with MCF7 [5], in the data set on MCF7 [7] and in the data set on MCF7 [8] was Active. Further, the pIC50 in the data set on MCF7 [16] is 5.89; in the data set on L02, < 4.30.
As to `C=C1/C(=C\C=C2/CCC[C@]3(C)[C@@H]([C@H](C)CCCC(C)(C)O)CC[C@@H]23)C[C@@H](O)C[C@@H]1O` [CALCITRIOL], the Activity result in the data set on Mus musculus is on record as “Toxic”; in the data set on MCF7 [9], 70.33%; with MCF7 [10], 0.4%; with MCF7 [11] it was 14%; in the data set with MCF7 [12], 3.88%; with MCF7 [13] it was 4.11%. For the same compound, in the data set on MCF7 [15], the Activity came to 25.56%. The viability at 1 µM in the data set with MCF7 [14] was 81.8%. In the data set with MCF7 [17], the outcome was inactive.
`CCN(CC)CCNC(=O)c1cc(C(CC)(CC)c2ccc(C#CC3(O)CCCCC3)c(C)c2)cn1CC`: the inhibition in data set [1] was found to be 44.2%. The compound further showed a pIC50 with MCF7 [16] of 5.51.
